From patent US20260325540A1 (priority 2023, published 2026)

Key:
MERS-CoV 3CLpro = MERS-CoV 3CLpro (Middle East respiratory syndrome-related coronavirus, UniProt K9N638); assay: biochemical; conditions: MERS IC50, 75 nM MERS-CoV 3CLpro, 6 μM peptide 1 substrate, 25° C., 1.5 hrs, pH 7.5
SARS-CoV-2 3CLpro = SARS-CoV-2 3CLpro (Severe acute respiratory syndrome coronavirus 2, UniProt P0DTD1); assay: FRET based protease assay, SARS-CoV-2 3CL; format: biochemical, SARS-CoV-2 (strain BetaCoV/Wuhan/WIV04/2019)

MERS-CoV 3CLpro, sequence (K9N638 3248-3553 limits assumed): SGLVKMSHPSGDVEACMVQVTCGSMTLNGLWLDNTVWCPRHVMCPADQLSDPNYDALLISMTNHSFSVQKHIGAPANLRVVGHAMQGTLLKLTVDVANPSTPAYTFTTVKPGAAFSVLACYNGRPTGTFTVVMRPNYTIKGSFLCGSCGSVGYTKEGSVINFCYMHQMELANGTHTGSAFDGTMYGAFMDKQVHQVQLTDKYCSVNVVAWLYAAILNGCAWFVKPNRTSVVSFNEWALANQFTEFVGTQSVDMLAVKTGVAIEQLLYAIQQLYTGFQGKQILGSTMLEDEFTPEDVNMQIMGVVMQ

Row | Compound | IC50 (MERS-CoV 3CLpro) [nM] | IC50 (SARS-CoV-2 3CLpro) [nM]
1 | N#C[C@@H]1C[C@@H]2C(=O)NC[C@@H]2CCCC[C@H](NC(=O)C2CC(F)(F)C2)C(=O)N2C[C@@H]3CCC[C@@H]3[C@H]2C(=O)N1 [Example 84] | 100 to 1000 | < 100
2 | CC1(C)[C@@H]2[C@H]3C(=O)N[C@H](C#N)C[C@@H]4C(=O)NC[C@@H]4CCCC[C@H](NC(=O)C4CCOCC4)C(=O)N3C[C@@H]21 [Example 85] | < 100 | < 100
3 | CC(C)(C)C(=O)N[C@H]1CC/C=C/[C@H]2CNC(=O)[C@H]2C[C@@H](C#N)NC(=O)[C@@H]2[C@H]3CCC[C@H]3CN2C1=O [Example 86] | 100 to 1000 | < 100
4 | CC1(C)[C@@H]2[C@H]3C(=O)N[C@H](C#N)C[C@@H]4C(=O)NC[C@@H]4CCCC[C@H](NC(=O)C(F)(F)F)C(=O)N3C[C@@H]21 [Example 87] | < 100 | < 100
5 | N#C[C@@H]1C[C@@H]2C(=O)NC[C@@H]2CCCC[C@H](NC(=O)C(F)(F)F)C(=O)N2C[C@@H]3CCC[C@@H]3[C@H]2C(=O)N1 [Example 88] | 100 to 1000 | < 100
6 | CC1(C)[C@@H]2[C@H]3C(=O)N[C@H](C#N)C[C@@H]4C(=O)NC[C@@H]4CCCC[C@H](NC(=O)CC4CC(F)(F)C4)C(=O)N3C[C@@H]21 [Example 89] | 100 to 1000 | < 100
7 | CC1(C)[C@@H]2[C@H]3C(=O)N[C@H](C#N)C[C@@H]4C(=O)NC[C@@H]4CCCC[C@H](NC(=O)CC4CCCC4)C(=O)N3C[C@@H]21 [Example 90] | 100 to 1000 | < 100
8 | CC1(C)[C@@H]2[C@H]3C(=O)N[C@H](C#N)C[C@@H]4C(=O)NC[C@@H]4CCCC[C@H](NC(=O)c4ccncn4)C(=O)N3C[C@@H]21 [Example 91] | < 100 | < 100
9 | CC(C)(C)OC(=O)N[C@H]1CC/C=C/[C@H]2CNC(=O)[C@H]2C[C@@H](C#N)NC(=O)[C@@H]2[C@@H]3[C@H](CN2C1=O)C3(C)C [Example 92] | < 100 | < 100
10 | N#C[C@@H]1C[C@@H]2C(=O)NCC[C@@H]2CCCC[C@H](NC(=O)OC2CCCC2)C(=O)N2C[C@@H]3CCC[C@@H]3[C@H]2C(=O)N1 [Example 93] | 100 to 1000 | < 100
11 | N#C[C@@H]1C[C@@H]2C(=O)NC[C@@H]2CCCC[C@H](NC(=O)OC2CCCC2)C(=O)N2C[C@@H]3CCC[C@@H]3[C@H]2C(=O)N1 [Example 94] | < 100 | < 100
12 | CC(C)(C)CC(=O)N[C@H]1CCCC[C@H]2CCNC(=O)[C@H]2C[C@@H](C#N)NC(=O)[C@@H]2[C@H]3CCC[C@H]3CN2C1=O [Example 95] | 100 to 1000 | < 100
13 | CC(C)(C)OC(=O)N[C@H]1CC/C=C\[C@H]2CCNC(=O)[C@H]2CC(C#N)NC(=O)[C@@H]2[C@H]3CCC[C@H]3CN2C1=O (stereo partly drawn) [Example 97] | 100 to 1000 | < 100
14 | CC(C)(C)OC(=O)N[C@H]1CCCC[C@H]2CCNC(=O)C2C[C@@H](C#N)NC(=O)[C@@H]2[C@H]3CCC[C@H]3CN2C1=O (stereo partly drawn) [Example 98] | 100 to 1000 | 100 to 1000
15 | CC(C)(C)OC(=O)N[C@H]1CC/C=C/[C@H]2CCNC(=O)[C@H]2C[C@@H](C#N)NC(=O)[C@@H]2[C@H]3CCC[C@H]3CN2C1=O [Example 99] | 1000 to 20000 | 100 to 1000
16 | CC(C)(C)OC(=O)N[C@H]1CCC[C@H]2CCNC(=O)[C@H]2C[C@@H](C#N)NC(=O)[C@@H]2[C@H]3CCC[C@H]3CN2C1=O [Example 100] | 1000 to 20000 | 1000 to 20000
17 | N#C[C@@H]1C[C@@H]2C(=O)NC[C@@H]2/C=C/CC[C@H](NC(=O)C(F)(F)F)C(=O)N2C[C@@H]3CCC[C@@H]3[C@H]2C(=O)N1 [Example 101] | 100 to 1000 | < 100
18 | CC(C)(C)OC(=O)N[C@H]1COCCC[C@H]2CNC(=O)[C@H]2C[C@@H](C#N)NC(=O)[C@@H]2[C@@H]3[C@H](CN2C1=O)C3(C)C [Example 102] | 100 to 1000 | < 100
19 | CC1(C)[C@@H]2[C@H]3C(=O)N[C@H](C#N)C[C@@H]4C(=O)NC[C@@H]4CCCC[C@H](NC(=O)c4ccc(F)cc4F)C(=O)N3C[C@@H]21 [Example 103] | < 100 | < 100
20 | CC1(C)[C@@H]2[C@H]3C(=O)N[C@H](C#N)C[C@@H]4C(=O)NCC[C@@H]4CCCC[C@H](NC(=O)C(F)(F)F)C(=O)N3C[C@@H]21 [Example 104] | < 100 | < 100
21 | CC(C)(C)OC(=O)N[C@H]1CCCC[C@H]2CNC(=O)[C@H]2C[C@@H](C#N)NC(=O)[C@@H]2CC3(CC3)CN2C1=O [Example 105] | 100 to 1000 | 100 to 1000
22 | CC(C)(C)COC(=O)N[C@H]1CCCC[C@H]2CNC(=O)[C@H]2C[C@@H](C#N)NC(=O)[C@@H]2[C@@H]3[C@H](CN2C1=O)C3(C)C [Example 106] | 100 to 1000 | < 100
23 | CC1(C)[C@@H]2[C@H]3C(=O)N[C@H](C#N)C[C@@H]4C(=O)NC[C@@H]4CCCC[C@H](NC(=O)c4cncnc4)C(=O)N3C[C@@H]21 [Example 107] | < 100 | < 100
24 | CC1(C)[C@@H]2[C@H]3C(=O)N[C@H](C#N)C[C@@H]4C(=O)NC[C@@H]4/C=C/CC[C@H](NC(=O)C(F)(F)F)C(=O)N3C[C@@H]21 [Example 108] | < 100 | < 100
